Tests used:
[1] = Substrate (ligand) specificity of […]s; type: biochemical; conditions: for fluorescence response of GECFINDER to each substrate, AVE of 3 repeats: Supplementary Fig. 3 c, substrate specificity
Summary of the method: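 Purified biosensor protein (0.75 μM) with ligand, 1 mM ATP and 2.5 mM MgCl2 in 100 mM Tris-HCl, pH 7.5, at room temperature. Fluorescence (Ex 460 or 480/Em 510 nm) read each minute for 15 min. Dose-response fitted by 5-parameter logistic; specificity tested with 20 amino acids at 100 μM as normalized ΔF/F0.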

[2] = Fluorescence spectra / excitation wavelength scan of […]s; type: physicochemical; conditions: Wavelength 300 nm
Experimental: Fig. 3 Dose–response curves and fluorescence spectrums of […]s. a, c, e, g, i, k Dose–response curve of purified […]s with increasing concentrations of ligand in 100 mM Tris-HCl buffer (pH=7.5). […] All data shown are mean ± S.D. (n = 3 biologically independent samples). Source data are provided as a Source data file.
The study conducted dose–response curve, substrate specificity, and fluorescent spectrum analyses in 100-mM Tris buffer (pH = 7.5), while pH stability experiments were performed in 100-mM Tris buffer at three different pH values (6.5, 7.5, and 8.5) at room temperature. […] protein at a concentration of 0.75 μM, various small molecule concentrations, 1 mM ATP, and 2.5 mM MgCl2 were used in the experiments. Fluorescent signals were detected using a Microplate Reader (Synergy H4, Bio Tek) at an excitation/emission wavelength of 460 nm/510 nm or 480 nm/510 nm. The dose-response curve was determined immediately after the addition of the analyte. The total duration of the measurement was 15 min, with readings taken at one-minute intervals. The dose-response curve was plotted using the fluorescence values obtained after achieving stability in the fluorescence signal. The dose-response curves were fitted using the logistic model LOGISTIC5 available in Origin 2021, which could provide a more adequate fit to asymmetric dose-response data[62],[63]. Excitation spectra were scanned from 300 to 540 nm with a step size of 5 nm, and the emission wavelength was set to 560 nm. Emission spectra were scanned from 470 to 700 nm with a step size of 5 nm, and the excitation wavelength was set to 450 nm. The thermal stability of […] was analyzed using the UNcle multifunctional protein stability analysis system. Measurements were performed in 20 mM MOPS buffer with 2 mM DTT at a sample concentration of 1 mg/mL. Absolute fluorescence quantum yields were measured using an absolute photoluminescence quantum yield spectrometer (FS5, Edinburgh).

Row | Wavelength scan, AVE of Repeat 1-3 (Fig. 3 l) ([2]; 0.005 μM His) | Wavelength scan, AVE of Repeat 1-3 (Fig. 3 l) ([2]; 10 μM His) | Wavelength scan, AVE of Repeat 1-3 (Fig. 3 l) ([2]; 1000 μM His) | Structure (SMILES) | AVE of Repeat 1-3, sensor signal with ligand (Supplementary Fig. 7 c) ([1]; 0.5 mM ligand, Control AVE 12117.3) | fluorescence response of GECFINDER to each substrate, AVE of 3 repeats [1] | Wavelength scan, AVE of Repeat 1-3 (Fig. 3 d) ([2]; 0.001 μM Phe) | Wavelength scan, AVE of Repeat 1-3 (Fig. 3 d) ([2]; 1 μM Phe) | Wavelength scan, AVE of Repeat 1-3 (Fig. 3 j) ([2]; 0.05 μM Ile) | Wavelength scan, AVE of Repeat 1-3 (Fig. 3 j) ([2]; 100 μM Ile) | Wavelength scan, AVE of Repeat 1-3 (Fig. 3 j) ([2]; 10000 μM Ile)
1 |  |  |  | N[C@@H](Cc1ccccc1)C(=O)O [Phe] | 23386.3 | 0.3443 | 174.667 | 212 |  |  | 
2 | 201.667 | 165.667 | 210 | N[C@@H](Cc1cnc[nH]1)C(=O)O [His] |  | 0.0452 |  |  |  |  | 
3 |  |  |  | CC[C@H](C)[C@H](N)C(=O)O [Ile] |  | 0.009799 |  |  | 3399.67 | 3371.67 | 3289.33
